Assays:
[1] = tested on: model for gastric ulcer caused by water immersion under restraint; experiment: water-immersion restraint stress gastric ulcer model, intragastric hemorrhage; type: in vivo, Wistar male rats; settings: in powdered feed; paroxetine 298 mg/kg diet, lysine hydrochloride 13.3 g/kg diet, arginine 13.3 g/kg diet; water-immersion restraint stress 5 hours
Description: A widely used model for gastric ulcer caused by water immersion under restraint was used. That is, rats were placed in a stress cage and immersed in water to the chest for 5 hours (at a temperature of 22-25° C.). The stomach was removed and the degree of intragastric hemorrhage was observed and the hemorrhage area was calculated using an NHI image software.
The test compound was evaluated as follows. Five-week-old Wistar male rats were divided into three groups. The first group was bred with a normal powdered feed; the second group with a powdered feed to which was added a selective serotonin reuptake inhibitor (SSRI) (paroxetine; Glaxo-SmithKline; 298 mg/kg diet) alone; and the third group with a powdered feed containing the same amount of the same SSRI and lysine hydrochloride (13.3 g/kg diet) to which was additionally added arginine (13.3 g/kg diet). Each group consisted of 10 animals. Rats could freely feed before they reached 14 weeks of age. Thereafter, no feed and water were given for 2 days, and on day 3, all of the rats were subjected to the water-immersion restraint stress for 5 hours.

[2] = tested on: animal model of irritable bowel syndrome (wrap-restraint stress); experiment: wrap-restraint stress irritable bowel syndrome model, amount of feces excreted; type: in vivo, Wistar male rats; settings: oral, 40 minutes before wrap-restraint stress; lysine hydrochloride 1 g/kg, alprazolam 10 mg/kg; vs control
Description: An animal model of irritable bowel syndrome was prepared according to the method as described by Williams et al. (Williams, C. L., Villar, R. G., Peterson, J. M., Burks, T. F., “Stress-induced changes in intestinal transit in the rat: a model for irritable bowel syndrome,” Gastroenterol., vol. 94, pp. 611-621 (1988)). That is, a cotton tape was placed around the anterior limbs of seven-week-old Wistar male rats, the rats were kept in a bracket cage, and then the amount of feces excreted during 2 hours was measured. A test compound was orally administered 40 minutes before starting the wrap-restraint stress. The following groups were examined: 1) control group; 2) a group to which lysine hydrochloride (1 g/kg) alone was given; 3) a group to which a minor tranquilizer alprazolam (10 mg/kg; Takeda Chem. Ind.) alone was given; and 4) a combination group to which lysine hydrochloride (1 g/kg) and alprazolam (10 mg/kg) were given. Each group consisted of 10 animals.

| SMILES | intragastric hemorrhage (hemorrhage area) [1] | effect on stress-induced increase of amount of feces excreted during 2 hours [2] |
| --- | --- | --- |
| Fc1ccc([C@@H]2CCNC[C@H]2COc2ccc3c(c2)OCO3)cc1 [SSRI, paroxetine] | significantly exacerbated the intragastric hemorrhage | – |
| Cc1nnc2n1-c1ccc(Cl)cc1C(c1ccccc1)=NC2 [alprazolam] | – | no clear effect was observed |
| Cl.NCCCC[C@H](N)C(=O)O [lysine hydrochloride] | – | no clear effect was observed |

Reference: patent US20050222263A1, “Compositions against stress-related diseases and methods for treating stress-related diseases” (Ajinomoto Co., Inc., priority 2002, published 2005)
